Test results reported in PubChem BioAssay (NCI).
Where “and” joins values, the source holds several entries; their conditions need not be identical. Equal values may be shown once.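 Exposure lasted 48 hours, with cells grown in 96-well plates and compounds tested at five concentrations. Here, GI50 denotes the concentration required for 50% inhibition of growth. TGI: total growth inhibition.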

Assays:
Test in all cases: inhibition of tumour cell growth, NCI panel, 48 h
T-47D breast = system: T-47D breast
TK-10 renal = system: TK-10 renal
SNB-75 CNS = system: SNB-75 CNS
SK-MEL-2 melanoma = system: SK-MEL-2 melanoma
NCI-H460 lung = system: NCI-H460 lung
MCF7 breast = system: MCF7 breast
HS 578T breast = system: HS 578T breast
HL-60(TB) leukemia = system: HL-60(TB) leukemia

| Structure (SMILES) | GI50 (T-47D breast) | TGI (T-47D breast) | GI50 (TK-10 renal) | TGI (TK-10 renal) | GI50 (SNB-75 CNS) | TGI (SNB-75 CNS) | GI50 (SK-MEL-2 melanoma) | TGI (SK-MEL-2 melanoma) | GI50 (NCI-H460 lung) | TGI (NCI-H460 lung) | GI50 (MCF7 breast) | TGI (MCF7 breast) | GI50 (HS 578T breast) | TGI (HS 578T breast) | GI50 (HL-60(TB) leukemia) | TGI (HL-60(TB) leukemia) |
| --- | --- | --- | --- | --- | --- | --- | --- | --- | --- | --- | --- | --- | --- | --- | --- | --- |
| CC(C)=Cc1cc(C)c2ccc(C)c3c2c1C(C)=C(O)C3=O | 16.9 µM | 52.8 µM | 44.6 µM | > 100 µM | > 100 µM | > 100 µM | 25.7 µM | 82.3 µM | 51.2 µM | > 100 µM | 53.5 µM | > 100 µM | 25.7 µM | 74.9 µM | 2.99 µM | 9.9 µM |
| O=C1NC(=O)C(=Cc2cn(Cc3ccccc3)c3ccccc23)C(=O)N1 | 4.09 µM | 20 µM | 2.16 µM | 8.58 µM | 7.61 µM | 27.1 µM | 6.41 µM | 28.3 µM | 0.264 µM | 13.4 µM | 6.54 µM | 23 µM | 8.71 µM | 29.3 µM | 21.4 µM | 81.6 µM |
| COC(=O)c1onc(C2OC(C)(C)OC2C(O)COC(c2ccccc2)(c2ccccc2)c2ccccc2)c1C(=O)OC (centres undefined) |  | > 100 µM |  | > 100 µM |  |  |  | > 100 µM |  |  |  | > 100 µM |  | > 100 µM |  | > 100 µM |
| CCC[CH2][Sn]([CH2]CCC)([CH2]CCC)/[C](=C/[Si](C)(C)c1ccccc1)c1ccc2c(c1)OCO2 | 24.6 µM | 62 µM | 33.8 µM | 99.1 µM | 58.5 µM | > 100 µM | 23.5 µM | 63.5 µM | 21.3 µM | 52.3 µM | 20.7 µM | 53.7 µM | 42.6 µM | > 100 µM | 15.8 µM | 35.4 µM |
| CN1CCN(C(=O)c2ccc(NC(=O)Nc3ccc(-c4nc(N5CCOCC5)c5cccn5n4)cc3)cc2)CC1 | 0.0126 µM | 0.0567 µM | 0.18 µM | 0.874 µM | 0.0134 µM | 0.0684 µM | 0.0596 µM | 1.39 µM | 0.0498 µM | 12 µM | < 0.012 µM | 2.73 µM | 0.0177 µM | 0.082 µM | 0.101 µM | 5.21 µM |
| O=C1NC(=O)C(c2cccc(Cl)c2)=C1Nc1ccc(Cl)c(C(=O)O)c1 | > 25 µM | > 25 µM | > 25 µM | > 25 µM | > 25 µM | > 25 µM | > 25 µM | > 25 µM | > 25 µM | > 25 µM | > 25 µM | > 25 µM | > 25 µM | > 25 µM | > 25 µM | > 25 µM |
| CCN1CCN(c2cc(C(=O)Nc3cccc(Nc4ccc5c(OC)cccc5n4)c3)cc(C(F)(F)F)c2)CC1 | 2.05 µM | 11.7 µM | 3.47 µM | 8.02 µM | 1.05 µM | 5.36 µM | 5.3 µM | 11 µM | 1.34 µM | 5.32 µM | 0.679 µM | 2.28 µM | 3.61 µM | 11.9 µM | 3.82 µM | 11.4 µM |
| COc1cc(S(=O)(=O)Nc2nc(-c3ccc(N4C(=O)C(C)SC4c4ccccc4O)cc3)cs2)ccc1Cl (centres undefined) | 28.8 µM | > 100 µM | 97.6 µM | > 100 µM | 42.4 µM | > 100 µM | 38.7 µM | > 100 µM | 42.5 µM | > 100 µM | 49 µM | > 100 µM | 43.1 µM | > 100 µM | 38 µM | > 100 µM |
| Nc1c(C(=O)c2cccc(C(O)CO)c2)cnn1-c1ccc(F)cc1 (centres undefined) | > 25 µM | > 25 µM | > 25 µM | > 25 µM | > 25 µM | > 25 µM | > 25 µM | > 25 µM | > 25 µM | > 25 µM | > 25 µM | > 25 µM | > 25 µM | > 25 µM | > 12.9 µM | > 25 µM |
| CC(C)C1(NC(=O)C2CC3c4cccc5[nH]cc(c45)CC3N(C)C2)OC2(O)C3CCCN3C(=O)C(Cc3ccccc3)N2C1=O (centres undefined) |  | > 100 µM |  | > 100 µM |  | 86.8 µM |  | > 100 µM |  | > 100 µM |  | > 100 µM |  | > 100 µM |  | 24.9 µM |
| Cc1c(Nc2nccc3cc(CN4CC[C@@H](O)C4)cnc23)cccc1-c1cccc(-c2nc3cc(CN4CC[C@@H](C(=O)O)C4)cc(C#N)c3o2)c1C | > 100 µM | > 100 µM | 20.5 µM | > 100 µM | 15.1 µM | > 100 µM | > 100 µM | > 100 µM | 7.15 µM | 21.8 µM | 1.52 µM | 4.26 µM | 15.1 µM | > 100 µM | 9.93 µM | 59.7 µM |
| COC1=C(OC)C(=O)C(C/C=C(\C)CC/C=C(\C)CC/C=C(\C)CC/C=C(\C)CC/C=C(\C)CC/C=C(\C)CC/C=C(\C)CC/C=C(\C)CC/C=C(\C)CCC=C(C)C)=C(C)C1=O | > 100 µM | > 100 µM | > 100 µM | > 100 µM | > 100 µM | > 100 µM | > 100 µM | > 100 µM | > 100 µM | > 100 µM | > 100 µM | > 100 µM | > 100 µM | > 100 µM | > 100 µM | > 100 µM |
| O=S(=O)(/N=S(/Nc1ccccc1)C(F)(F)Cl)c1ccccc1 (centres undefined) |  | > 100 µM |  | > 100 µM |  | > 100 µM |  | > 100 µM |  | > 100 µM |  | > 100 µM |  | > 100 µM |  | > 100 µM |
| COc1cc(/C=C/C(=O)CC(=O)/C=C/c2cc(OC)c(O)c(OC)c2)cc(OC)c1O |  | 21.5 µM | 34.2 µM | 25 µM and > 100 µM |  | 61.4 µM | 4.24 µM | 16.3 µM and 16.6 µM |  | > 100 µM | 19.6 µM | 25 µM and > 100 µM | 5.73 µM | 18 µM and 53.8 µM |  | 25 µM and 42.6 µM |
| O=c1[nH]c2ccccc2c(O)c1/C=N/C(=S)NC1CCCCC1 |  | > 100 µM |  | > 100 µM |  | > 100 µM |  | > 100 µM |  | > 100 µM |  | > 100 µM |  | > 100 µM |  | > 100 µM |
| NC1=NC(SCc2ccccc2CCl)c2ncn(Cc3ccccc3CCl)c2N1 (centres undefined) | 1.54 µM | 3.34 µM | 3.29 µM | 11.9 µM | 2.06 µM | 5.47 µM | 2.06 µM | 4.89 µM | 2.53 µM | 6.69 µM | 2.17 µM | 19.9 µM | 3.51 µM | > 100 µM |  |  |
| COC(=O)CC1(O)C=CC(=O)C=C1 |  | 25.7 µM |  | 16 µM |  | 14.2 µM |  | 14.6 µM |  | 5.02 µM |  | 15.2 µM |  | 39.4 µM |  | > 22.6 µM |
